Source: US20240018123A1, “COMPOUND FOR INHIBITING OR DISINTEGRATING ANDROGEN RECEPTOR, AND PHARMACEUTICAL USE THEREOF” (KOREA RESEARCH INSTITUTE OF CHEMICAL TECHNOLOGY, priority 2020, published 2024)
Like-named read-outs stand apart in the source and are kept apart here.

Legend:
Androgen receptor (AR) = target: T1, Androgen receptor (AR) (Homo sapiens, UniProt P10275, T878A); assay: Assessment of AR proteolytic activity (Western blotting of LNCap cell lysates); assay type: cell-based; details: 24 hours of treatment, Western blotting quantified with Image J
T1 construct: 5.5×10^5 LNCap cells were injected into each well of a 6-well plate; endogenous in cells; host or cells: LNCaP
T1 sequence (P10275 1-920 T878A): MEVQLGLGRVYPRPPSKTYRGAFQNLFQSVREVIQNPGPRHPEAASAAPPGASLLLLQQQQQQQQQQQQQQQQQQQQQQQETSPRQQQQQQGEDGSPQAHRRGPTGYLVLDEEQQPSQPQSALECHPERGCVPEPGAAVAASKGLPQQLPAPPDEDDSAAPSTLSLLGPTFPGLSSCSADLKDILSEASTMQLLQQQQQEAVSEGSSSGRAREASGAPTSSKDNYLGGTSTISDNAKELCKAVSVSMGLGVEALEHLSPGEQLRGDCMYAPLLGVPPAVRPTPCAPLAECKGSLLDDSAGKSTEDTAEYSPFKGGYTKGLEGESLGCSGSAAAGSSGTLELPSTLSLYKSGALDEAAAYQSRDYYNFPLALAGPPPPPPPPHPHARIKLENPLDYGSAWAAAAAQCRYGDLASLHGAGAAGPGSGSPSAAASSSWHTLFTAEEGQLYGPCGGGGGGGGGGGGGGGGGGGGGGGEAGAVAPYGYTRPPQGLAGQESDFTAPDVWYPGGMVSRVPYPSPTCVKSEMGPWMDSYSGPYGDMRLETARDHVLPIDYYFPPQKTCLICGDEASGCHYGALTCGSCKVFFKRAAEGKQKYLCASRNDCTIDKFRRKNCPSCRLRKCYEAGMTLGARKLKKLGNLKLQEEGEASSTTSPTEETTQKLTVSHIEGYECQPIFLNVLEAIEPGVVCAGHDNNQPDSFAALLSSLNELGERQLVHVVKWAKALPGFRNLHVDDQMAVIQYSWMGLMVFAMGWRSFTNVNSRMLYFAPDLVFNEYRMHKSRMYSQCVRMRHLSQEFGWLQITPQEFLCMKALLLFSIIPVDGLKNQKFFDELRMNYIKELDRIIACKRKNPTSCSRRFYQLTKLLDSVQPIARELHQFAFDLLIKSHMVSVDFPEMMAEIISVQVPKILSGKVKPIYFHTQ
Outline: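 LNCap cells seeded at 5.5×10^5 per well and treated with compound for 24 hours. Lysates prepared in RIPA buffer (pH 7.5, with protease inhibitors). AR protein levels assessed by Western blot with densitometric quantification.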

LNCaP cells [1] = test system: LNCaP cells
Method: (§1) In order to evaluate the androgen receptor (AR) cytotoxicity of the compounds according to the present invention, the following experiment was conducted. Specifically, 1.5×10^3 (LNCaP) or 4×10^3 (VCaP, 22RV1), respectively, of LNCaP, VCaP, and 22RV1 cells were injected into each well of a 96-well plate. The next day, each well was treated with the compound at a final concentration of 3 nM, 10 nM, 30 nM, 100 nM, 300 nM, 1 μM, 3 μM, and 10 μM. […] After 6 days of treatment, Cell-titer-glo (promega) was treated and reacted for 10 minutes, and cell viability was measured with a multimode plate reader (PerkinElmer, Inc.), and the change was quantified compared to when DMSO was treated.

LNCaP cells [2] = assay: Cytotoxicity assessment (Cell-titer-glo cell viability), LNCaP
Method: as §1

VCaP cells = assay: Cytotoxicity assessment (Cell-titer-glo cell viability), VCaP
Method: as §1

[3] = read-out: LNCAP (CC50), LNCaP cells, 6 days of treatment, Cell-titer-glo, vs DMSO
[4] = read-out: VCaP (CC50), VCaP cells, 6 days of treatment, Cell-titer-glo, vs DMSO

Row | Degradation (1 μM treated in LNCaP, % AR remaining) (Androgen receptor (AR)) [%] | SMILES | CC50 (LNCaP cells [1]) [nM] | CC50 (LNCaP cells [2]; [3]) [µM] | CC50 (VCaP cells; [4]) [µM] | other results
1 | 35.3 | CC1(C)C(NC(=O)c2ccc(OCCOCCOCCOCCOCCOCCCCNC(=O)CNc3cccc4nnn(C5CCC(=O)NC5=O)c(=O)c34)cc2)C(C)(C)C1Oc1ccc(C#N)c(Cl)c1 (centres unmarked) [Example 14, N-((1r,3r)-3-(3-chloro-4-cyanophenoxy)-2,2,4,4-tetramethylcyclobutyl)-4-((22-((3-(2,6-dioxopiperidin-3-yl)-4-oxo-3,4-dihydrobenzo[d][1,2,3]triazin-5-yl)amino)-21-oxo-3,6,9,12,15-pentaoxa-20-azadocosyl)oxy)benzamide] | 4020 | – | – | –
2 | 23 | CC1(C)[C@H](NC(=O)c2ccc(N3CCN(C4CC5(CCN(C(=O)CNc6ccc7nnn(C8CCC(=O)NC8=O)c(=O)c7c6)CC5)C4)CC3)cc2)C(C)(C)[C@H]1Oc1ccc(C#N)c(Cl)c1 (some centres unmarked) [Example 19, N-((1r,3r)-3-(3-chloro-4-cyanophenoxy)-2,2,4,4-tetramethylcyclobutyl)-4-(4-(7-((3-(2,6-dioxopiperidin-3-yl)-4-oxo-3,4-dihydrobenzo[d][1,2,3]triazin-6-yl)glycyl)-7-azaspiro[3.5]nonan-2-yl)piperazin-1-yl)benzamide] | – | 0.208 | 0.0763 | –
3 | 7 | CC1(C)[C@H](NC(=O)c2ccc(N3CCN(CC4CCN(c5ccc6c(=O)n(C7CCC(=O)NC7=O)nnc6c5)CC4)CC3)cc2)C(C)(C)[C@H]1Oc1ccc(C#N)c(Cl)c1 (some centres unmarked) [Example 12, N-((1r,3r)-3-(3-chloro-4-cyanophenoxy)-2,2,4,4-tetramethylcyclobutyl)-4-(4-((1-(3-(2,6-dioxopiperidin-3-yl)-4-oxo-3,4-dihydrobenzo[d][1,2,3]triazin-7-yl)piperidin-4-yl)methyl)piperazin-1-yl)benzamide] | 1310 | – | – | –
4 | 39.9 | CC1(C)[C@H](NC(=O)c2ccc(N3CCN(CC4CCN(C(=O)CNc5ccc6nnn(C7CCC(=O)NC7=O)c(=O)c6c5)CC4)CC3)cc2)C(C)(C)[C@H]1Oc1ccc(C#N)c(Cl)c1 (some centres unmarked) [Example 9, N-((1r,3r)-3-(3-chloro-4-cyanophenoxy)-2,2,4,4-tetramethylcyclobutyl)-4-(4-((1-((3-(2,6-dioxopiperidin-3-yl)-4-oxo-3,4-dihydrobenzo[d][1,2,3]triazin-6-yl)glycyl)piperidin-4-yl)methyl)piperazin-1-yl)benzamide] | 117 | – | – | –

Second part, the compound before the results:

Row | SMILES | Degradation (1 μM treated in LNCaP, % AR remaining) (Androgen receptor (AR)) [%] | CC50 (LNCaP cells [1]) [nM] | CC50 (LNCaP cells [2]; [3]) [µM] | CC50 (VCaP cells; [4]) [µM] | other results
5 | CC1(C)C(NC(=O)c2ccc(OCCOCCOCCOCCOCCNc3cccc4nnn(C5CCC(=O)NC5=O)c(=O)c34)cc2)C(C)(C)C1Oc1ccc(C#N)c(Cl)c1 (centres unmarked) [Example 2, N-((1r,3r)-3-(3-chloro-4-cyanophenoxy)-2,2,4,4-tetramethylcyclobutyl)-4-((14-((3-(2,6-dioxopiperidin-3-yl)-4-oxo-3,4-dihydrobenzo[d][1,2,3]triazin-5-yl)amino)-3,6,9,12-tetraoxatetradecyl)oxy)benzamide] | 100 | 4930 | – | – | –
6 | CC1(C)C(NC(=O)c2ccc(OCCOCCOCCOCCOCCOCCCCNc3ccc4nnn(C5CCC(=O)NC5=O)c(=O)c4c3)cc2)C(C)(C)C1Oc1ccc(C#N)c(Cl)c1 (centres unmarked) [Example 17, N-((1r,3r)-3-(3-chloro-4-cyanophenoxy)-2,2,4,4-tetramethylcyclobutyl)-4-((19-((3-(2,6-dioxopiperidin-3-yl)-4-oxo-3,4-dihydrobenzo[d][1,2,3]triazin-6-yl)amino)-3,6,9,12,15-pentaoxanonadecyl)oxy)benzamide] | 6.7 | 835 | – | – | –
7 | CC1(C)[C@H](NC(=O)c2ccc(N3CCN(CCOC4CCN(C(=O)COc5ccc6nnn(C7CCC(=O)NC7=O)c(=O)c6c5)CC4)CC3)cc2)C(C)(C)[C@H]1Oc1ccc(C#N)c(Cl)c1 (some centres unmarked) [Example 32, N-((1r,3r)-3-(3-chloro-4-cyanophenoxy)-2,2,4,4-tetramethylcyclobutyl)-4-(4-(2-((1-(2-((3-(2,6-dioxopiperidin-3-yl)-4-oxo-3,4-dihydrobenzo[d][1,2,3]triazin-6-yl)oxy)acetyl)piperidin-4-yl)oxy)ethyl)piperazin-1-yl)benzamide] | – | – | – | – | remaining activity at 1 µM (Androgen receptor (AR); read-out: Degradation (1 μM treated in LNCaP, % AR remaining)): 2%; CC50 (LNCaP cells [2]; Homo sapiens, LNCaP, 144 h, read-out: LNCAP (CC50, μM)): 1.3 µM; CC50 (VCaP cells; Homo sapiens, VCaP, 144 h, read-out: VCaP (CC50, μM)): 0.141 µM
8 | CC1(C)[C@H](NC(=O)c2ccc(N3CCN(C4CC5(CCN(c6cccc7nnn(C8CCC(=O)NC8=O)c(=O)c67)CC5)C4)CC3)cc2)C(C)(C)[C@H]1Oc1ccc(C#N)c(Cl)c1 (some centres unmarked) [Example 22, N-((1r,3r)-3-(3-chloro-4-cyanophenoxy)-2,2,4,4-tetramethylcyclobutyl)-4-(4-(7-(3-(2,6-dioxopiperidin-3-yl)-4-oxo-3,4-dihydrobenzo[d][1,2,3]triazin-5-yl)-7-azaspiro[3.5]nonan-2-yl)piperazin-1-yl)benzamide] | 74 | – | 13.4 | 0.135 | –
9 | CC1(C)C(NC(=O)c2ccc(OCCOCCOCCOCCOCCOCCCCNc3cccc4nnn(C5CCC(=O)NC5=O)c(=O)c34)cc2)C(C)(C)C1Oc1ccc(C#N)c(Cl)c1 (centres unmarked) [Example 5, N-((1r,3r)-3-(3-chloro-4-cyanophenoxy)-2,2,4,4-tetramethylcyclobutyl)-4-((19-((3-(2,6-dioxopiperidin-3-yl)-4-oxo-3,4-dihydrobenzo[d][1,2,3]triazin-5-yl)amino)-3,6,9,12,15-pentaoxanonadecyl)oxy)benzamide] | 6 | 1600 | – | – | –
10 | CC1(C)[C@H](NC(=O)c2ccc(N3CCN(C4CC5(CCN(c6ccc7nnn(C8CCC(=O)NC8=O)c(=O)c7c6)CC5)C4)CC3)cc2)C(C)(C)[C@H]1Oc1ccc(C#N)c(Cl)c1 (some centres unmarked) [Example 23, N-((1r,3r)-3-(3-chloro-4-cyanophenoxy)-2,2,4,4-tetramethylcyclobutyl)-4-(4-(7-(3-(2,6-dioxopiperidin-3-yl)-4-oxo-3,4-dihydrobenzo[d][1,2,3]triazin-6-yl)-7-azaspiro[3.5]nonan-2-yl)piperazin-1-yl)benzamide] | 5 | – | 0.302 | 0.191 | –
11 | CC1(C)[C@H](NC(=O)c2ccc(N3CCN(CC4CCN(c5cccc6nnn(C7CCC(=O)NC7=O)c(=O)c56)CC4)CC3)cc2)C(C)(C)[C@H]1Oc1ccc(C#N)c(Cl)c1 (some centres unmarked) [Example 7, N-((1r,3r)-3-(3-chloro-4-cyanophenoxy)-2,2,4,4-tetramethylcyclobutyl)-4-(4-((1-(3-(2,6-dioxopiperidin-3-yl)-4-oxo-3,4-dihydrobenzo[d][1,2,3]triazin-5-yl)piperidin-4-yl)methyl)piperazin-1-yl)benzamide] | 24.3 | 902 | – | – | –
12 | CC1(C)[C@H](NC(=O)c2ccc(N3CCN(CC4CCN(C(=O)C5CCN(c6ccc7nnn(C8CCC(=O)NC8=O)c(=O)c7c6)CC5)CC4)CC3)cc2)C(C)(C)[C@H]1Oc1ccc(C#N)c(Cl)c1 (some centres unmarked) [Example 10, N-((1r,3r)-3-(3-chloro-4-cyanophenoxy)-2,2,4,4-tetramethylcyclobutyl)-4-(4-((1-(1-(3-(2,6-dioxopiperidin-3-yl)-4-oxo-3,4-dihydrobenzo[d][1,2,3]triazin-6-yl)piperidine-4-carbonyl)piperidin-4-yl)methyl)piperazin-1-yl)benzamide] | 12.5 | – | 0.19 | 0.257 | –
